The values that follow come from patent publication US20250320206A1, “STAT6 DEGRADERS” (Gilead Sciences, Inc., priority 2024, published 2025).

pEC50: −log10 of the molar value.

In general, DC50 refers to the midpoint of the concentration-degradation curve. What is called pEC50 is the negative decadic logarithm of the EC50, by convention in mol/L.

Assay [1] addresses T1, STAT6 (Homo sapiens, UniProt P42226).
T1 construct: These cells express endogenous STAT6; host or cells: HeLa LgBiT clone 4.14
T1 sequence (P42226 1-847): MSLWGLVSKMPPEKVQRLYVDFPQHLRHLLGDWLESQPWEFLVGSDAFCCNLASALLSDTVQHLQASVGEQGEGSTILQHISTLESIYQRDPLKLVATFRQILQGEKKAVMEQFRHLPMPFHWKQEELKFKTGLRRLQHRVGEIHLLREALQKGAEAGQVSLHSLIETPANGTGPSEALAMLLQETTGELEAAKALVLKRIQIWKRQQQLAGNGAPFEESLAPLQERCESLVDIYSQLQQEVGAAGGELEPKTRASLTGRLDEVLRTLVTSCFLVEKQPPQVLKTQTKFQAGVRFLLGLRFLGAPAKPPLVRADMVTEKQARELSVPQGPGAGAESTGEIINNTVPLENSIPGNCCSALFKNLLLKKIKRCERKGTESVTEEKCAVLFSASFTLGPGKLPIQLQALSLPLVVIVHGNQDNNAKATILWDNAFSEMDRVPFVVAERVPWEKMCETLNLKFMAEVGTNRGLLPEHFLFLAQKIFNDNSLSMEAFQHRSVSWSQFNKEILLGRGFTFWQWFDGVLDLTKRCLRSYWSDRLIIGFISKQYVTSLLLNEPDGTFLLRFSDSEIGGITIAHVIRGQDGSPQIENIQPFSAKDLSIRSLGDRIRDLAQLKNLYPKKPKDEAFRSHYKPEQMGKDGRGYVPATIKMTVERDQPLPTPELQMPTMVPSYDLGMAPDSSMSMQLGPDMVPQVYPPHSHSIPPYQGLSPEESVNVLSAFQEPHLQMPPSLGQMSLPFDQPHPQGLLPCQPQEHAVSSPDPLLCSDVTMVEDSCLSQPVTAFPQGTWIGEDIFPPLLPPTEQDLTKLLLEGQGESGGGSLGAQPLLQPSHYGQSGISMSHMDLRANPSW
Nature of the assay: Stat6 Degrader Assay (HiBiT based, HeLa LgBiT clone 4.14). The format is cell-based. Particulars: HeLa LgBiT clone 4.14 HiBiT-STAT6, 4-24 h incubation; values given for compounds with >80% Emax; geometric mean; read-out: STAT6 degradation DC50. Put shortly: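 HeLa LgBiT clone 4.14 cells with CRISPR HiBiT-tagged endogenous STAT6, 5000 cells/well, compound dosed then incubated 4-24 h at 37° C, 5% CO2. Nano-Glo substrate added, 0.5 h, luminescence read as non-degraded STAT6. Terfenadine 50 μM (cell kill) defines 100% degradation.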

The subject of assay [2] is Eotaxin-3 release in human whole blood stimulated with IL-4. The assay is described as follows: Human Whole Blood Eotaxin-3 Assay (IL-4 stimulated eotaxin-3 release). The format is cell-based. The following applies: IL-4 stimulation, 48 h, values given for compounds with >80% Emax, geometric mean. The method, boiled down: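 Lithium-heparin human whole blood preincubated 2 h at 37° C with 4-fold serially diluted compounds (0.5% DMSO), then stimulated with recombinant human IL-4 ([…]) for 48 h. Eotaxin-3 (CCL26) in supernatant quantified by MSD immunoassay.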

Turning to `CNc1ccn(-c2ccnc3c2cc(CN2CC=C(c4c(C)cc(C(=O)N(C)c5ccc(C6CCN(Cc7ccc8c(c7)n(C)c(=O)n8C7CCC(=O)NC7=O)CC6)cc5)cc4F)CC2)n3C)c(=O)c1` (stereo not shown) [Example 3u247, N-(4-(1-((1-(2,6-dioxopiperidin-3-yl)-3-methyl-2-oxo-2,3-dihydro-1H-benzo[d]-imidazol-5-yl)methyl)piperidin-4-yl)phenyl)-3-fluoro-N,5-dimethyl-4-(1-((1-methyl-4-(4-(methyl-amino)-2-oxopyridin-1 (2H)-yl)-1H-pyrrolo[2,3-b]pyridin-2-yl)methyl)-1,2,3,6-tetrahydropyridin-4-yl)benzamide], the DC50 in assay [1] amounted to 0.04 nM. Moreover, the negative-log EC50 (pEC50) in assay [2] is 9.52.
Regarding `CNc1ccn(-c2ccnc3c2cc([C@H](C)N2CC=C(c4c(C)cc(C(=O)N5CCC(CN6CCN(c7ccc8c(c7)n(C)c(=O)n8C7CCC(=O)NC7=O)CC6)CC5)cc4F)CC2)n3C)c(=O)c1` (stereo partly drawn) [Example 3u299, 3-(5-(4-((1-(3-fluoro-5-methyl-4-(1-((S)-1-(1-methyl-4-(4-(methylamino)-2-oxopyridin-1 (2H)-yl)-1H-pyrrolo[2,3-b]pyridin-2-yl)ethyl)-1,2,3,6-tetrahydropyridin-4-yl)benzoyl)piperidin-4-yl)methyl)piperazin-1-yl)-3-methyl-2-oxo-2,3-dihydro-1H-benzo[d]imidazol-1-yl)piperidine-2,6-dione], the DC50 in assay [1] came to 0.9 nM. Moreover, in assay [2], the negative logarithm of the EC50 (pEC50) was 9.30.
The like results for `C[C@H]1CN(Cc2ccc3c(c2)n(C2CC2)c(=O)n3[C@H]2CCC(=O)NC2=O)CCN1CC1CCN(C(=O)c2cc(F)c(C3CCN(Cc4cc5c(-n6ccc7c(c6=O)CCN7)ccnc5n4C)CC3)c(F)c2)CC1` (single isomer, unassigned) [Example 3u107] were, in that order, 2.5 nM and 8.55.
The corresponding values for `CNc1ccn(-c2ccnc3c2cc([C@H](C)N2CC=C(c4c(F)cc(C(=O)N5CCC(CN6CCN(Cc7ccc8c(c7)n(C7CC7)c(=O)n8[C@H]7CCC(=O)NC7=O)C[C@@H]6C)CC5)cc4F)CC2)n3C)c(=O)c1` (single isomer, unassigned) [Example 3u211] are 0.5 nM and 9.30.
The like results for `CNc1ccn(-c2ccnc3c2cc(CN2CC=C(c4c(C)cc(C(=O)N5CCC(CN6CCN(Cc7ccc8c(c7)C(C)(C)C(=O)N8C7CCC(=O)NC7=O)C[C@@H]6C)CC5)cc4F)CC2)n3C)c(=O)c1` (stereo partly drawn) [Example 3u178, 3-(5-(((S)-4-((1-(3-fluoro-5-methyl-4-(1-((1-methyl-4-(4-(methylamino)-2-oxopyridin-1 (2H)-yl)-1H-pyrrolo[2,3-b]pyridin-2-yl)methyl)-1,2,3,6-tetrahydropyridin-4-yl)benzoyl)piperidin-4-yl)methyl)-3-methylpiperazin-1-yl)methyl)-3,3-dimethyl-2-oxoindolin-1-yl)piperidine-2,6-dione] were, in that order, 5.6 nM and 8.11.
For the compound `CNc1cc(=O)n(-c2ccnc3c2cc(CN2CC=C(c4c(F)cc(C(=O)N5CCC(CN6CCN(Cc7ccc8c(c7)C(C)(C)C(=O)N8C7CCC(=O)NC7=O)C[C@@H]6C)CC5)cc4F)CC2)n3C)cc1F` (stereo partly drawn) [Example 3u77, 3-(5-(((S)-4-((1-(3,5-difluoro-4-(1-((4-(5-fluoro-4-(methylamino)-2-oxopyridin-1 (2H)-yl)-1-methyl-1H-pyrrolo[2,3-b]pyridin-2-yl)methyl)-1,2,3,6-tetrahydropyridin-4-yl)benzoyl)piperidin-4-yl)methyl)-3-methylpiperazin-1-yl)methyl)-3,3-dimethyl-2-oxoindolin-1-yl)piperidine-2,6-dione], in assay [1], the DC50 came out at 16.1 nM. This compound had a pEC50 in assay [2] of 7.62.
For the compound `Cc1cc(C(=O)N2CCC(CN3CCN(Cc4cc5c(cc4F)n([C@H]4CCC(=O)NC4=O)c(=O)n5C)CC3)CC2)cc(F)c1C1=CCN([C@@H](C)c2cc3c(-n4ccc5c(c4=O)CCN5)ccnc3n2C)CC1` (single isomer, unassigned) [Example 3u75], the half-maximal degradation concentration (DC50) in assay [1] stood at 0.6 nM. The same compound gave a pEC50 in assay [2] of 9.00.
The corresponding values for `CNc1ccn(-c2ccnc3c2cc(CN2CC=C(c4c(F)cc(C(=O)N5CCC(CN6CCN(Cc7ccc8c(c7)C(C)(C)C(=O)N8[C@@H]7CCC(=O)NC7=O)C[C@@H]6C)CC5)cc4F)CC2)n3C)c(=O)c1` (single isomer, unassigned) [Example 3u47] are 0.8 nM and 8.10.
The corresponding values for `CNc1cc(=O)n(-c2ccnc3c2cc(CN2CCC(c4c(F)cc(C(=O)N5CCC(CN6CCN(Cc7ccc8c(c7)C(C)(C)C(=O)N8C7CCC(=O)NC7=O)C[C@@H]6C)CC5)cc4F)CC2)n3C)cc1F` (stereo partly drawn) [Example 3u48, 3-(5-(((S)-4-((1-(3,5-difluoro-4-(1-((4-(5-fluoro-4-(methylamino)-2-oxopyridin-1 (2H)-yl)-1-methyl-1H-pyrrolo[2,3-b]pyridin-2-yl)methyl)piperidin-4-yl)benzoyl)piperidin-4-yl)methyl)-3-methylpiperazin-1-yl)methyl)-3,3-dimethyl-2-oxoindolin-1-yl)piperidine-2,6-dione] are 11.2 nM and 8.11.
The like results for `CNc1ccn(-c2ccnc3c2cc(CN2CCC(c4c(F)cc(C(=O)N5CCC(CN6CCN(Cc7ccc8c(c7)C7(CC7)C(=O)N8C7CCC(=O)NC7=O)C[C@@H]6C)CC5)cc4F)CC2)n3C)c(=O)n1` (stereo partly drawn) [Example 3h12, 3-(5′-(((S)-4-((1-(3,5-difluoro-4-(1-((1-methyl-4-(4-(methylamino)-2-oxopyrimidin-1 (2H)-yl)-1H-pyrrolo[2,3-b]pyridin-2-yl)methyl)piperidin-4-yl)benzoyl)piperidin-4-yl)methyl)-3-methylpiperazin-1-yl)methyl)-2′-oxospiro[cyclopropane-1,3′-indolin]-1′-yl)piperidine-2,6-dione] were, in that order, 3.2 nM and 8.89.
Consider `CNc1ccn(-c2ccnc3c2cc(CN2CC=C(c4c(C)cc(C(=O)N(C)c5ccc(C6CCN(Cc7ccc8c(c7)C(C)(C)C(=O)N8[C@@H]7CCC(=O)NC7=O)CC6)cc5)cc4F)CC2)n3C)c(=O)c1` (single isomer, unassigned) [Example 3u230], for which the half-maximal degradation concentration (DC50) in assay [1] came to 0.4 nM. Also, in assay [2], the pEC50 was 8.70.
As for `CNc1cc(=O)n(-c2ccnc3c2cc([C@H](C)N2CC=C(c4c(C)cc(C(=O)N5CCC(CN6CCN(Cc7ccc8c(c7)C(C)(C)C(=O)N8C7CCC(=O)NC7=O)C[C@@H]6C)CC5)cc4F)CC2)n3C)cc1F` (stereo partly drawn) [Example 3u172, 3-(5-(((S)-4-((1-(3-fluoro-4-(1-((S)-1-(4-(5-fluoro-4-(methylamino)-2-oxopyridin-1 (2H)-yl)-1-methyl-1H-pyrrolo[2,3-b]pyridin-2-yl)ethyl)-1,2,3,6-tetrahydropyridin-4-yl)-5-methylbenzoyl)piperidin-4-yl)methyl)-3-methylpiperazin-1-yl)methyl)-3,3-dimethyl-2-oxoindolin-1-yl)piperidine-2,6-dione], in assay [1], the 50% degradation concentration (DC50) is 2.9 nM. The compound also showed a pEC50 in assay [2] of 7.88.
As for `CNc1ccn(-c2ccnc3c2cc([C@H](C)N2CCC(c4c(C)cc(C(=O)N(C)c5ccc(C6CCN(Cc7ccc8c(c7)n(C)c(=O)n8C7CCC(=O)NC7=O)CC6)cc5)cc4F)CC2)n3C)c(=O)c1` (stereo partly drawn) [Example 3u249, N-(4-(1-((1-(2,6-dioxopiperidin-3-yl)-3-methyl-2-oxo-2,3-dihydro-1H-benzo[d]-imidazol-5-yl)methyl)piperidin-4-yl)phenyl)-3-fluoro-N,5-dimethyl-4-(1-((S)-1-(1-methyl-4-(4-(methyl-amino)-2-oxopyridin-1 (2H)-yl)-1H-pyrrolo[2,3-b]pyridin-2-yl)ethyl)piperidin-4-yl)benzamide], in assay [1], the DC50 came out at 0.6 nM. The compound further had a pEC50 in assay [2] of 8.85.
For `CN(C(=O)c1cc(F)c(C2CCN(Cc3cc4c(-n5ccc6c(c5=O)CCN6)ccnc4n3C)CC2)c(F)c1)c1ccc(C2CCN(Cc3ccc4c(c3)n(C)c(=O)n4C3CCC(=O)NC3=O)CC2)cc1` (stereo not shown) [Example 3u251, N-(4-(1-((1-(2,6-dioxopiperidin-3-yl)-3-methyl-2-oxo-2,3-dihydro-1H-benzo[d]-imidazol-5-yl)methyl)piperidin-4-yl)phenyl)-3,5-difluoro-N-methyl-4-(1-((1-methyl-4-(4-oxo-1,2,3,4-tetrahydro-5H-pyrrolo[3,2-c]pyridin-5-yl)-1H-pyrrolo[2,3-b]pyridin-2-yl)methyl)piperidin-4-yl)-benzamide], in assay [1], the DC50 came out at 0.2 nM. Besides, the negative-log EC50 (pEC50) in assay [2] was 9.05.
